“And” between values parts separate entries of the source, which are not always exact repeats. Identical values can stand only once. Like-named read-outs stand apart in the source and are kept apart here. Residues, ends and D or L forms follow the SMILES beside them.
Columns and labels:
[1] = Cytotoxicity (resazurin) against cultured HaCaT noncancerous cells
Procedure: (§1) Cell death was measured using resazurin, with 0.1% (v/v) Triton X‐100 as a control for 100% cell death. Data points are expressed as mean ± SD for at least two biological replicates. Dose response curves were fitted using [inhibitor] versus response with variable slope, Graphpad Prism v10. […] RBC lysis was determined by measuring released hemoglobin, with 0.1% (v/v) Triton X‐100 as a control for 100% cell lysis. Melittin was included as a membranolytic control. Data points are expressed as mean ± SD for two technical replicates. Dose response curves were fitted using [inhibitor] versus response with variable slope, Graphpad Prism v10. […] CC50 values are expressed as mean (SEM). […]
(§2) HaCaT cells were grown in DMEM medium and HT144 cells were grown in RPMI medium supplemented with 2 mM L-glutamine and 10 mM sodium pyruvate. Media were supplemented with 10% (v/v) fetal bovine serum, 100 units/mL of penicillin and […] of streptomycin. Flasks of cultured cells were maintained in a humidified incubator (37 °C, 5% CO2) and passaged every 2–3 days to maintain cultures between 20–90% confluence. Cell line identity was verified by comparing […]
(§3) STR profiles of the cell lines against database entries from the DSMZ-German collection of microorganisms and cell cultures, GmBH https://celldive.dsmz.de/str/browse.
(§4) Toxicity to the HT144 and HaCaT cell lines was tested following peptide treatment by measuring the metabolism of resazurin into fluorescent resorufin. The assays were performed with 5000 cells/well (96-well plate) in serum free media. Cells were incubated with serially diluted peptides, PDCs or drugs for 72 h or 24 h (37 °C, 5% CO2). PBS and 0.1% (v/v) Triton X-100 were included as controls for 0% and 100% toxicity. Resazurin was added at 0.02% (w/v) final concentration 2 h prior to the assay end point. Fluorescence (λex = 560 nm, λem = 585 nm) was measured using a Tecan infinite M1000Pro multiplate reader. Percentage cytotoxicity was calculated relative to 0% and 100% controls.
(§5) Dose-response curves were fitted and CC50 values were determined using [inhibitor] vs response with four parameters with the top constrained to 100% (GraphPad Prism version 10.0.2). Data was collected as three biological replicates, with experiments conducted on different days.
(§6) Red blood cell (RBC) lysis
(§7) Human RBCs and serum were obtained from healthy volunteers via the Red Cross Lifeblood, Brisbane, Australia. RBCs were washed three times with PBS and stored in culture medium (RPMI

human RBCs = assay: Red blood cell (RBC) lysis, released hemoglobin; details: concentration range 16 nM—2 μM, 72 h
Procedure: as §1, §6
Human RBCs and serum were obtained from healthy volunteers via the Red Cross Lifeblood,
Brisbane, Australia. RBCs were washed three times with PBS and stored in culture medium (RPMI

HT144 (melanoma) cells = assay: cells
Procedure: (§8) Cell death was measured using resazurin, with 0.1% (v/v) Triton X‐100 as a control for 100% cell death. Data points are expressed as mean ± SD for at least two biological replicates. Dose response curves were fitted using [inhibitor] versus response with variable slope, Graphpad Prism v10. […] RBC lysis was determined by measuring released hemoglobin, with 0.1% (v/v) Triton X‐100 as a control for 100% cell lysis. Melittin was included as a membranolytic control. Data points are expressed as mean ± SD for two technical replicates. Dose response curves were fitted using [inhibitor] versus response with variable slope, Graphpad Prism v10. […] CC50 values are expressed as mean (SEM).
(§9) Cell death was measured using resazurin, with 0.1% (v/v) Triton X-100 as a control for 100% cell death. Data points are expressed as mean ± SD for at least two biological replicates. CC50 values are expressed as mean (SEM). Note: CPT-dipeptide-PDIP was not included in this study. c[A]PDIP is a desulfurized variant of cPDIP 2 (see Table S1) to prevent the presence of free thiol during assays. […]
as §2, §3
(§10) Toxicity to the HT144 and HaCaT cell lines was tested following peptide treatment by measuring the metabolism of resazurin into fluorescent resorufin. The assays were performed with 5000 cells/well (96-well plate) in serum free media. Cells were incubated with serially diluted peptides, PDCs or […]

[2] = Parallel artificial membrane permeability assay (PAMPA); type: in vitro ADME; details: for % recovered (soluble fractions): combined apical and basolateral fractions; for Papp at 4 h, 4 μM: PAMPA
Procedure: FIGURE 4 (A) Membrane permeability and cellular uptake of PDCs, scaffold peptides, and CPT. Compounds were added to PAMPA wells (4 μM) and incubated for 4 h. Supernatant from apical and basolateral sides of the membrane were collected and analyzed using LC–MS. The amount in the combined soluble fractions was compared to the starting amount to determine % recovery, and the apparent permeability (Papp) was calculated as before (Sevin et al. [2013]). Data is expressed as mean ± SD from a single experiment with three technical replicates. (B) Internalization/cell membrane association of PDCs 12–14 and PDIP with HT144 cells. Cells were treated with PDIP or PDCs (4 μM) for 1 h, washed to remove extracellular compound, then extracted with 75% (v/v) MeCN in mQH2O (containing 1.75% (v/v) TFA), to recover soluble peptide or PDC from precipitated cell proteins. The relative amount of internalized peptide or PDC was determined by integrating area under the curve (AUC) for the [M + 6H]^6+ m/z peak (for the intact mass) using time of flight–mass spectrometry (see Figure S2). […] Data is expressed as mean ± SD from a single experiment with three technical replicates for each treatment and control and was analyzed with ANOVA (Tukey multiple comparisons; **p < 0.01, *p < 0.05). (C) Detection of intracellular CPT following 6 h treatment of HT144 cells with CPT and PDCs 12 and 14. […] Data is expressed as mean ± SD from a single experiment with three technical replicates for each treatment and was analyzed with ANOVA (Fisher multiple paired comparisons; **p < 0.01, *p < 0.05). TEXT PRINTED IN THE PICTURE: (A) PDIP: % recovered (soluble fractions): 94 | (A) 12: % recovered (soluble fractions): 58 | (A) 14: % recovered (soluble fractions): 33 | (A) 15: % recovered (soluble fractions): 40 | (A) c[A] PDIP: % recovered (soluble fractions): 34 | (A) CPT: % recovered (soluble fractions): 92 […]
For the first assay, the PDCs (12–15), scaffold peptides and CPT (4 μM) were added to the apical side of PAMPA monolayers and incubated for 4 h. […] PDIP, CPT, and PDCs 12 and 14 had high permeability (Papp ≥ 2 × 10^−6 cm/s), highlighting that these PDCs maintain membrane permeability with the CPT cargo attached. […] Reliable permeability data were not obtained for PDC 13 because of poor recovery of the PDC from soluble fractions, and degradation during the 4 h PAMPA experiment. […] Instability of the carbonate linkage within CPT conjugates containing a dipeptide linker has been previously reported (Walker et al. [2002]), highlighting the potential incompatibility of this drug–linker combination for CPT PDCs. Considering the observed degradation of 13 in the cell‐free assay, it is also possible that extracellular degradation occurred during the cytotoxicity assays.
Parallel artificial membrane permeability assay (PAMPA)
PAMPA was performed according to the manufacturer instructions for the BD Gentest pre-coated PAMPA plate system (BD Biosciences), as previously described.16 Briefly, peptides and PDCs (4 μM in PBS) were added to the apical side of PAMPA wells and incubated for 4 h at 37 °C, 5% CO2 with 95% humidity. Soluble fractions were recovered from the apical and basolateral sides, and compound concentration was quantified using a Shimadzu LCMS-2020 instrument with a Phenomenex 5 µm C18 / 300 Å / 150 x 2 mm LC column. Data was collected from three technical replicates for each compound. The % recovery was determined from (combined from apical and basolateral fractions) relative to the starting concentration:
Recovery rate : R (%) = (C஺ ×V஺ +C஻ ×V஻ )× 100 where CA and CB are the apical and basolateral concentrations (µM), VA and VB are the apical and basolateral volumes (mL), and C0 is the initial concentration (µM).
The apparent permeability coefficient (Papp) was calculated using the following equations17 and where A is the membrane surface area (cm2): […]

cells = assay: cells
Procedure: as §8, §9, §2, §3, §10

[3] = tested on: HaCaT (noncancerous) cells; assay: Cytotoxicity (resazurin) against cultured HaCaT noncancerous cells; details: read-out: CC50 HaCaT; 72 h incubation, resazurin; mean (SEM)
Procedure: as §1, §2, §3, §4, §5, §6, §7

[4] = 4 μM, 4 h, apical to basolateral, read-out: apparent permeability (Papp)

Compound: CC[C@@]1(O)C(=O)OCc2c1cc1n(c2=O)Cc2cc3ccccc3nc2-1 [CPT, Camptothecin]
- CC50 at 72 h ([1]; human): 570 nM
- RBC lysis (human RBCs): did not lyse RBCs
- cytotoxic activity against HT144 at 24 h (HT144 (melanoma) cells; 24 h incubation, 16 nM to 2 μM (CPT, PDCs), up to 32 μM (peptides)): absence of activity
- CC50 (HT144 (melanoma) cells; Homo sapiens, HT-144, 72 h, read-out: CC50 (half maximal cytotoxicity concentration) HT144): 380 nM
- % recovered (soluble fractions) ([2]; 4 μM, 4 h): 92% and > 90%
- Papp at 4 h, 4 μM [2, 4]: ≥ 2 ×10⁻⁶ cm/s

Compound: CC[C@H](C)[C@@H]1NC(=O)[C@H](CCCCN)NC(=O)[C@H](CCCCN)NC(=O)[C@H](Cc2ccc(O)cc2)NC(=O)[C@H](CC(C)C)NC(=O)[C@@H]2CCCN2C(=O)CNC(=O)CNC(=O)[C@@H](NC(=O)CN)CSSC[C@@H](C(=O)N[C@@H](CCC(=O)O)C(=O)N[C@@H](CO)C(N)=O)NC(=O)[C@H](CC(C)C)NC(=O)[C@H](CCCCN)NC(=O)[C@H](CCCCN)NC(=O)[C@H]([C@@H](C)CC)NC(=O)[C@H]([C@@H](C)CC)NC(=O)[C@H](CCCCN)NC(=O)[C@H](CCCCN)NC(=O)[C@H](Cc2ccc(O)cc2)NC(=O)[C@H](CC(C)C)NC(=O)[C@@H]2CCCN2C(=O)[C@H](C)NC(=O)CNC(=O)CNC(=O)[C@H](Cn2cc(CCCC(=O)O[C@]3(CC)C(=O)OCc4c3cc3n(c4=O)Cc4cc5ccccc5nc4-3)nn2)NC(=O)CNC(=O)CNC(=O)[C@H](CO)NC(=O)[C@H](CCC(=O)O)NC(=O)[C@H](CC(C)C)NC(=O)[C@H](CC(C)C)NC(=O)[C@H](CCCCN)NC(=O)[C@H](CCCCN)NC(=O)[C@H]([C@@H](C)CC)NC1=O [PDC 12]
- CC50 [1]: > 2000 nM
- CC50 (cells): > 2000 nM
- cytotoxic activity against HT144 (HT144 (melanoma) cells; 72 h, concentration range 16 nM—2 μM): no activity
- % recovered (soluble fractions) ([2]; 4 μM, 4 h): 58%
- Papp at 4 h, 4 μM [2, 4]: ≥ 2 ×10⁻⁶ cm/s

Compound: CC[C@H](C)[C@@H]1NC(=O)[C@H](CCCCN)NC(=O)[C@H](CCCCN)NC(=O)[C@H](Cc2ccc(O)cc2)NC(=O)[C@H](CC(C)C)NC(=O)[C@@H]2CCCN2C(=O)[C@H](C)NC(=O)CNC(=O)CNC(=O)[C@H](CO)NC(=O)CNC(=O)CNC(=O)[C@H](CO)NC(=O)[C@H](CCC(=O)O)NC(=O)[C@H](CC(C)C)NC(=O)[C@H](CC(C)C)NC(=O)[C@H](CCCCN)NC(=O)[C@H](CCCCN)NC(=O)[C@H]([C@@H](C)CC)NC(=O)[C@H]([C@@H](C)CC)NC(=O)[C@H](CCCCN)NC(=O)[C@H](CCCCN)NC(=O)[C@H](Cc2ccc(O)cc2)NC(=O)[C@H](CC(C)C)NC(=O)[C@@H]2CCCN2C(=O)[C@H](C)NC(=O)CNC(=O)CNC(=O)[C@H](C)NC(=O)CNC(=O)CNC(=O)[C@H](CO)NC(=O)[C@H](CCC(=O)O)NC(=O)[C@H](CC(C)C)NC(=O)[C@H](CC(C)C)NC(=O)[C@H](CCCCN)NC(=O)[C@H](CCCCN)NC(=O)[C@H]([C@@H](C)CC)NC1=O [c[A]PDIP] (cyclo(AGGAPLYKKIIKKLLESGGSGGAPLYKKIIKKLLESGG))
- CC50 [3]: ≥ 32000 nM
- CC50 [1]: ~32000 nM
- CC50 (cells): 9350 nM
- Papp at 4 h, 4 μM [2]: ~0.4 ×10⁻⁶ cm/s
